This is an account of results in patent US9193710B2, “Benzodiazepinones as modulators of metabotropic glutamate receptor functions and neurological uses thereof” (SANFORD-BURNHAM MEDICAL RESEARCH INSTITUTE, priority 2011, dated 2015).

“Also recorded” adds a separate entry of the source. Where two headings read alike, the source gives them in different places.

Assay type in all cases: cell-based
Test [1] relates to human neural stem cells (hNSCs). Description: Neuronal differentiation of human neural stem cells. More on the design: key to Inhibition by LY-354740 / Inhibition by DCG-IV: I—Inhibition. Particulars: for EC50: Homo sapiens, Neural stem cell; for Inhibition by DCG-IV: inhibition of the compound-induced neurogenesis by the mGluR2/3 agonist DCG-IV; for Inhibition by LY-354740: inhibition of the compound-induced neurogenesis by the group II mGlu agonist LY-354740. As to the method: FIG. 1 is a dose-response curve showing the effect of Compound 1 (8-bromo-4-(pyridazin-4-yl)-1H-benzo[b][1,4]diazepin-2(3H)-one) and DCG-IV, an mGluR2/3 agonist, alone and in combination on neuronal differentiation of cultured human neural stem cells (hNSCs). When run independently, each compound was tested in a concentration response curve ranging from 0.01 μM to 31.6 μM. Data are presented as the percentage of the neuronal positive control, with basal media values subtracted. […] In combination, the compounds were combined at equal concentrations at each point (for example, the first point in the combined curve consisted of a test of 0.01 μM Compound 1 and 0.01 μM DCG-IV).
Human neural stem cells (hNSCs) were isolated and grown in monolayer culture, plated, treated with varying concentrations of 8-bromo-4-(pyridazin-4-yl)-1H-benzo[b][1,4]diazepin-2(3H)-one (Compound 1), and stained with TUJ-1 antibody, as described in U.S. Patent Application Publication No. US2007/0015138. Mitogen-free test media with a positive control for neuronal differentiation was used along with basal media without growth factors as a negative control. […] The data are presented as a percent of neuronal positive control.
The same protocol used for exemplary Compound 1 (FIG. 1 and Example 55) was used to test these compounds. LY-354740 (eglumegad) is an agonist of the group II mGlu receptors.

Test [2] concerns the target T1, mGluR3 (Homo sapiens, UniProt Q14832).
T1 construct: expressed in transfected cells; transient Galpha16 co-transfection
Description: Functional assay (FLIPR), mGluR3. The settings on record: class symbols: IC50 or inhibition at fixed concentration; CHO cells over-expressing mGluR3, calcium signal. The protocol:
(§1) The compounds are further characterized through functional assays known in the art for studying potential mGluR agents. As a non-limiting example, the assay may be conducted as follows. Chinese hamster ovary (CHO) cells stably over-expressing either mGluR2 or mGluR3 are seeded into multiwell plates and transiently transfected overnight at 37° C. with a cDNA construct expressing G-protein coupled to intracellular calcium such as Gα16. The following day cells are washed with Hank's balanced salt solution containing calcium and magnesium. Cells are loaded for 1-2 hours with a calcium dye such as Fluo4 at 37° C.
The test compound may be added prior to or concurrent with the loading of the cells with Fluo4. Pre-incubation with compounds can vary from 5 minutes up 2 hours. Pre-incubation is done if the assay is testing for antagonists, positive allosteric modulators or negative allosteric modulators. No pre-incubation is done if the assay is testing for agonist activity. For testing antagonists or negative allosteric modulators an EC80 of the endogenous ligand, glutamate, is used. For testing positive allosteric modulators an EC20 of the endogenous ligand, glutamate, is used. Cells plates are loaded into a real-time fluorescence reader such as the FLIPR Tetra or the Flexstation 3. A base line is recorded for 15 seconds before cells are stimulated with either glutamate or other agonists. The real-time fluorescent signal is recorded for another 2 minutes. The peak of the fluorescent signal is determined. Data are either expressed as percent of the glutamate response in terms of a single determination or concentration curves are fitted with a four parameter logistic equation giving EC50 or IC50 values.

In test [3] the target is T2, mGluR2 (Homo sapiens, UniProt Q14416).
T2 construct: expressed in transfected cells; transient Galpha16 co-transfection
T2 sequence (Q14416 19-872): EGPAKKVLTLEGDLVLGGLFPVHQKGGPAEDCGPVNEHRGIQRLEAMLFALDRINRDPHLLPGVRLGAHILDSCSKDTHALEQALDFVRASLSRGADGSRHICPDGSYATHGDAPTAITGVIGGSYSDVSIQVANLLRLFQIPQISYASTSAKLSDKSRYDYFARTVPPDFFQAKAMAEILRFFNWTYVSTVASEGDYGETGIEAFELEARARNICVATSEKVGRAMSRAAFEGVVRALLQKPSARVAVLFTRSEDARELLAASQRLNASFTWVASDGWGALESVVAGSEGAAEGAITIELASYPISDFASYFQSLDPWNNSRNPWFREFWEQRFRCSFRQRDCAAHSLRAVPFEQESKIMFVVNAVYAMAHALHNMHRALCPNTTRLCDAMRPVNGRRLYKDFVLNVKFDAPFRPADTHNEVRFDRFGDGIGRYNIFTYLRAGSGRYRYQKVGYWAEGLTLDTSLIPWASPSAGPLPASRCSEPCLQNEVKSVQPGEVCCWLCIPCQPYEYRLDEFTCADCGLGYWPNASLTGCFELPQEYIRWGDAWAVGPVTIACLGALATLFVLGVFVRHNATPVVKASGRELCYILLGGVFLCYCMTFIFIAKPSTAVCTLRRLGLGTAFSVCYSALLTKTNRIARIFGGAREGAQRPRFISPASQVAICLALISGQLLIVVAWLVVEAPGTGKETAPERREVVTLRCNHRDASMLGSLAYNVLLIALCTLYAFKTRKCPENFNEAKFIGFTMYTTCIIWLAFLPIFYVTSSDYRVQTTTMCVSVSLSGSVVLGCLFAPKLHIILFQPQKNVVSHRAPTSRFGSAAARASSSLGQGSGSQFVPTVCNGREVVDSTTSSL
Nature of the test: Functional assay (FLIPR), mGluR2. Particulars: class symbols: IC50 or inhibition at fixed concentration; CHO cells over-expressing mGluR2, calcium signal. The protocol: as §1
The test compound may be added prior to or concurrent with the loading of the cells with Fluo4. Pre-incubation with compounds can vary from 5 minutes up 2 hours. […] Cells plates are loaded into a real-time fluorescence reader such as the FLIPR Tetra or the Flexstation 3. A base line is recorded for 15 seconds before cells are stimulated with either glutamate or other agonists. The real-time fluorescent signal is recorded for another 2 minutes. The peak of the fluorescent signal is determined. Data are either expressed as percent of the glutamate response in terms of a single determination or concentration curves are fitted with a four parameter logistic equation giving EC50 or IC50 values.

[4] abbreviates: neuronal differentiation of hNSCs, TUJ-1 staining, read-out: Neurogenesis EC50.

T1 sequence (Q14832 23-879): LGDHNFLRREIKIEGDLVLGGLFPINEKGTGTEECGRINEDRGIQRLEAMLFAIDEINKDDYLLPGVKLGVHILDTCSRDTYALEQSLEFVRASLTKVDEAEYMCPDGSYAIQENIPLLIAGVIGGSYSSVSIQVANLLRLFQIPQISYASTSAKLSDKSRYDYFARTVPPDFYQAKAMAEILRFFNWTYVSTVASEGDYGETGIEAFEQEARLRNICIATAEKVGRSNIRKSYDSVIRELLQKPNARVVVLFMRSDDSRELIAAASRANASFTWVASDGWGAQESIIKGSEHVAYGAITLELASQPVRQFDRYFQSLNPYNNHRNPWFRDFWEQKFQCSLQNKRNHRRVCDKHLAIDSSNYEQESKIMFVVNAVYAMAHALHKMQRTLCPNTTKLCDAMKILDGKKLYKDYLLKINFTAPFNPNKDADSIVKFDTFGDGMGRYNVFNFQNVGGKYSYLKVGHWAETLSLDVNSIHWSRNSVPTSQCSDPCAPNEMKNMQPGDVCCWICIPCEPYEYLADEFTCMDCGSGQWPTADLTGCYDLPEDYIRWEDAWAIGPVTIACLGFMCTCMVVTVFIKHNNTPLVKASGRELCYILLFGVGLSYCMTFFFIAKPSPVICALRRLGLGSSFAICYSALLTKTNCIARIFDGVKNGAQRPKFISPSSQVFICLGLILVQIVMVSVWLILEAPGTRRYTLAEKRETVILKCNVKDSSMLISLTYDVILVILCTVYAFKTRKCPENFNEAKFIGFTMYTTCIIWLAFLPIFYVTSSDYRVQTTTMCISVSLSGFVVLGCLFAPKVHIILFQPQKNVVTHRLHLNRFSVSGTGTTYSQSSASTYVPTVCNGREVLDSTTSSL

Regarding `O=C1CC(c2ccnnc2)=Nc2ccc(Br)cc2N1` [Compound 1, 8-bromo-4-(pyridazin-4-yl)-1H-benzo[b][1,4]diazepin-2(3H)-one], the “effect on neuronal differentiation (neurogenesis), tested alone” value in test [1] (FIG. 1, 0.01 μM to 31.6 μM) was “promoted neuronal differentiation in a concentration dependent manner”. The “neurogenesis in combination with DCG-IV” value in test [1] (FIG. 1, Compound 1 and DCG-IV at equal concentrations (1:1 ratio) at each point) is recorded as “no noted neurogenesis; also recorded: did not induce neurogenesis”. Moreover, the concentration giving a half-maximal response (EC50) in test [1] (FIG. 1, 0.01 μM to 31.6 μM, percentage of neuronal positive control, basal media subtracted, read-out: EC50, neuronal differentiation dose-response curve) was 2.53 µM; in test [1] (setting [4]) it was 1 to 5 µM. In addition, in test [1], the “Inhibition by DCG-IV” value is “I”.

For `O=C1CC(c2ccnnc2)=Nc2ccc(C(F)(F)F)cc2N1` [Compound 2, 8-trifluoromethyl-4-(pyridazin-4-yl)-1H-benzo[b][1,4]diazepin-2(3H)-one], the concentration giving a half-maximal response (EC50) in test [1] (setting [4]) was in the range of 1 to 5 µM. In test [1], the “Inhibition by LY-354740” value is “I”.

As to `O=C1CC(c2ccnnc2)=Nc2ccc(I)cc2N1` [Compound 3, 8-iodo-4-(pyridazin-4-yl)-1H-benzo[b][1,4]diazepin-2(3H)-one], the EC50 in test [1] (setting [4]) fell in the range of 1 to 5 µM. Also, the “Inhibition by LY-354740” value in test [1] is reported as “I”.

Turning to `COC(=O)c1ccc2c(c1)NC(=O)CC(c1ccnnc1)=N2` [Compound 4, Methyl 2-oxo-4-(pyridazin-4-yl)-2,3-dihydro-1H-benzo[b][1,4]diazepine-8-carboxylate], the EC50 in test [1] (setting [4]) was in the range of 1 to 5 µM.

On to `O=C1CC(c2ccnnc2)=Nc2ccc(Cl)cc2N1` [Compound 5, 8-chloro-4-(pyridazin-4-yl)-1H-benzo[b][1,4]diazepin-2(3H)-one], for which, in test [1] (setting [4]), the concentration giving a half-maximal response (EC50) is less than 1 µM.

Take `O=C1CC(c2ccnnc2)=Nc2ccc(F)cc2N1` [Compound 6, 8-fluoro-4-(pyridazin-4-yl)-1H-benzo[b][1,4]diazepin-2(3H)-one]: the 50% effective concentration (EC50) in test [1] (setting [4]) was 1 to 5 µM.

Take `O=C1CC(c2cncnc2)=Nc2ccc(Br)cc2N1` [Compound 7, 8-Bromo-4-(pyrimidin-3-yl)-1H-benzo[b][1,4]diazepin-2(3H)-one]: the concentration giving a half-maximal response (EC50) in test [1] (setting [4]) was greater than 5 µM.

Take `O=C1CC(c2cnccn2)=Nc2ccc(Br)cc2N1` [Compound 8, 8-Bromo-4-(pyrazin-2-yl)-1H-benzo[b][1,4]diazepin-2(3H)-one]: the half-maximal effective concentration (EC50) in test [1] (setting [4]) was greater than 5 µM.

In the case of `Cc1ccc(C2=Nc3ccc(Br)cc3NC(=O)C2)nn1` [Compound 9], in test [1] (setting [4]), the EC50 lay within 1 to 5 µM.

For `O=C1CC(c2ccc(Cl)nn2)=Nc2ccc(Br)cc2N1` [Compound 10], the EC50 in test [1] (setting [4]) lay in the range of 1 to 5 µM.

In the case of `O=C1CC(c2ccnnc2)=Nc2ccc(C(=O)O)cc2N1` [Compound 12, 2-oxo-4-(pyridazin-4-yl)-2,3-dihydro-1H-benzo[b][1,4]diazepine-8-carboxylic acid], the concentration giving a half-maximal response (EC50) in test [1] (setting [4]) was less than 1 µM. Also, the “Inhibition by LY-354740” value in test [1] is “I”.

Turning to `Cc1cc2c(cc1C)NC(=O)CC(c1ccnnc1)=N2` [Compound 13, 7,8-Dimethyl-4-(pyridazin-4-yl)-1H-benzo[b][1,4]diazepin-2(3H)-one], the EC50 in test [1] (setting [4]) is greater than 5 µM.

For the compound `O=C1CC(c2ccnnc2)=Nc2ccc(-c3cccs3)cc2N1` [Compound 15, 8-(Thiophen-2-yl)-4-(pyridazin-4-yl)-1H-benzo[b][1,4]diazepin-2(3H)-one], the concentration for a half-maximal effect (EC50) in test [1] (setting [4]) was in the range of 1 to 5 µM. Moreover, in test [1], the “Inhibition by LY-354740” value was “I” and the “Inhibition by DCG-IV” value was “I”.

`O=C1CC(c2ccnnc2)=Nc2ccc(-c3ccccc3F)cc2N1` [Compound 16, 8-(2-Fluorophenyl)-4-(pyridazin-4-yl)-1H-benzo[b][1,4]diazepin-2(3H)-one]: in test [1] (setting [4]), the half-maximal effective concentration (EC50) is greater than 5 µM.

Regarding `COc1ccc(-c2ccc3c(c2)NC(=O)CC(c2ccnnc2)=N3)cc1OC` [Compound 17, 8-(3,4-Dimethoxyphenyl)-4-(pyridazin-4-yl)-1H-benzo[b][1,4]diazepin-2(3H)-one], the EC50 in test [1] (setting [4]) is greater than 5 µM.

As for `O=C1CC(c2ccc(O)nn2)=Nc2ccc(Br)cc2N1` [Compound 33, 8-Bromo-4-(6-hydroxypyridazin-3-yl)-1H-benzo[b][1,4]diazepin-2(3H)-one], the “mGluR3 FLIPR” value in test [2] is “B (B=inhibition at 101.1M>50%)”.

In the case of `O=C1CC(c2ccc3[nH]c(=O)sc3c2)=Nc2ccc(Br)cc2N1` [Compound 35, 6-(8-bromo-2-oxo-2,3-dihydro-1H-benzo[b][1,4]diazepin-4-yl)benzo[d]thiazol-2(3H)-one], in test [2], the “mGluR3 FLIPR” value is “C (C=inhibition at 101.1M<50%)”.

For `O=C1CC(c2ccc3[nH]c(=O)sc3c2)=Nc2ccc(C#Cc3ccccc3F)cc2N1` [Compound 36, 6-(8-((2-fluorophenyl)ethynyl)-2-oxo-2,3-dihydro-1H-benzo[b][1,4]diazepin-4-yl)benzo[d]thiazol-2(3H)-one], the “mGluR3 FLIPR” value in test [2] is given as “C (C=inhibition at 101.1M<50%)”.

On to `O=C1CC(c2cccc(Br)c2)=Nc2ccc(NC(=O)OCc3ccccc3)cc2N1` [Compound 82, benzyl(4-(3-bromophenyl)-2-oxo-2,3-dihydro-1H-benzo[b][1,4]diazepin-8-yl)carbamate], for which the “mGluR2 FLIPR” value in test [3] was “A (A=IC50<1 μM)”.

For `N[C@H](C(=O)O)C1[C@@H](C(=O)O)[C@@H]1C(=O)O` (some centres unmarked) [DCG-IV, reference compound], the “effect on neuronal differentiation (neurogenesis), tested alone” value in test [1] (FIG. 1, 0.01 μM to 31.6 μM) is given as “no effect; also recorded: did not induce neurogenesis”.
